The test system of experiment [1] is neutrophils. In words: Neutrophil degranulation, release of myeloperoxidase, ELISA. Format: cell-based. The settings on record: Homo sapiens, primed neutrophils, ELISA (FIG. 4). The procedure: Neutrophils were cultured at 2×10^6 cells/ml in RPMI1640 medium containing human serum antibiotics and 20 ng/ml TNFα for 10 minutes prior to addition of a range of concentrations of compound 10. Release of MPO was monitored after a 30 minute period by ELISA. Data are mean of duplicate measurements representative of 5 separate experiments.
Anti-inflammatory effects against neutrophils were determined by assessing effects of several of the compounds on neutrophil inflammatory activity (superoxide generation, secretion of chemoattractant IL8 and degranulation to release myeloperoxidase). Neutrophils were isolated from human blood to a purity of greater than 95% and were cultured in RPMI1640 medium containing 2% human AB serum, 2 mM L-glutamine and antibiotics (100 U/ml penicillin, […] streptomycin). Neutrophils were primed for 30 minutes with 50 ng/ml GM-CSF prior to treatment with the bacterial stimulant fMLP (100 ng/ml) and measurement of superoxide generation in a lucigenin based assay (see Pongracz J and Lord J M 1998, Biochem. Biophys. Res. Commun. 247, 624-629) and release of IL8 and myeloperoxidase using an ELISA method. The novel compounds were added to the culture at a range of concentrations (0.1-100 μM) 10 minutes prior to addition of fMLP. […]
Background: An ELISA detects its analyte on a solid surface through an enzyme-linked reagent.

Experiment [2] has as its system human myeloid leukemia K-562. In words: In vitro cytotoxicity, Calcein AM assay, K-562. Conditions: Homo sapiens, K562, 72 hours. It is filed as cell-based. The source says:
(§1) Low cytotoxicity of the compounds is the major property determining the cosmetic use. One of the parameters used, as the basis for cytotoxicity assays, is the metabolic activity of viable cells. For example, a microtiter assay, which uses the Calcein AM, is now widely used to quantitate cell proliferation and cytotoxicity. For instance, this assay is used in drug screening programs and in chemosensitivity testing. Because only metabolically active cells cleave Calcein AM, these assays detect viable cells exclusively. The quantity of […] Calcein AM corresponds to the number of vital cells in the culture.
(§2) Human T-lymphoblastic leukemia cell line CEM; promyelocytic HL-60 and monocytic U937 leukemias; breast carcinoma cell lines MCF-7, BT549, MDA-MB-231; glioblastoma U87MG cells; cervical carcinoma cells HELA; sarcoma cells U2OS and Saos2; hepatocellular carcinoma HepG2; mouse fibroblasts NIH3T3; mouse immortalized bone marrow macrophages B2.4 and B10A.4; P388D1 and L1210 leukemia; B16 and B16F10 melanomas; human osteosarcoma HOS; human myeloid leukemia K-562; human skin melanoma G-361 were used for routine screening of compounds. The cells were maintained in Nunc/Corning 80 cm^2 plastic tissue culture flasks and cultured in cell culture medium (DMEM with 5 g/l glucose, 2 mM glutamine, 100 U/mL penicillin, 100 μg/mL streptomycin, 10% fetal calf serum and sodium bicarbonate).
(§3) The cell suspensions that were prepared and diluted according to the particular cell type and the expected target cell density (2.500-30.000 cells per well based on cell growth characteristics) were added by pipette ([…]) into 96/well microtiter plates. Inoculates were allowed a pre-incubation period of 24 hours at 37° C. and 5% CO2 for stabilisation. Four-fold dilutions of the intended test concentration were added at time zero in 20 μl aliquots to the microtiter plate wells. Usually, the compound tested was evaluated at six 4-fold dilutions. In routine testing, the highest well concentration was 100 μM, but it can be the matter of change dependent on the agent. All drug concentrations were examined in duplicates. Incubations of cells with the tested compounds lasted for 72 hours at 37° C., in 5% CO2 atmosphere and 100% humidity. At the end of the incubation period, the cells were assayed by using Calcein AM. Ten microliters of the stock solution were pipetted into each well and incubated for 1 hour. Fluorescence (FD) was measured with the Labsystem FIA Reader Fluoroscan Ascent (UK). The tumour cell survival (GI50) was calculated using the following equitation: TCS=(FDdrug exposed well/mean FDeontrol wells)×100%. The GI50 value, the drug concentration lethal to 50% of the tumour cells, was calculated from the obtained dose response curves.
(§4) Zero cytotoxicity of the novel compounds is the basic prerequisite for agricultural and tumor-unrelated applications. The cytoxicity of the novel compounds was tested on a panel of cell lines of different histogenetic and species origin (Table 9). We show herein that equal activities were found in all tumour cell lines tested, however, the non-malignant cells, e.g. NIH3T3 fibroblasts and normal human lymphocytes, were resistant to 2,6-disubstituted purine ribosides induced cytotoxicity. The compounds listed in Tab. 9 can be divided into 2 groups. The first group contains “classical cytokinins” represented by 6-substituted purine ribosides (which are known in the prior art). The second group contains the novel 2,6-disubstituted derivatives of these compounds. […] GI50 for NIH3T3 fibroblasts and normal human lymphocytes was always higher than 100 μM. The novel derivatives show no toxicity to normal and tumour cells in concentrations about 100 μM and thus are more suitable for agricultural applications than “classical cytokinins” (6-substituted purine riboside derivatives).

For experiment [3], the system named is Human T-lymphoblastic leukemia cell line CEM. In words: In vitro cytotoxicity, Calcein AM assay, CEM. Conditions: Homo sapiens, 72 hours. Format: cell-based.
Description: as §1, §2, §3, §4

Experiment [4] relates to neutrophils. In words: Neutrophil adhesion, rolling and migration under flow over TNF primed HUVEC. Format: cell-based, human. The procedure: Neutrophils were introduced into a flow based cell adhesion instrument at 5×10^6 cells/ml in medium containing 50 or 100 μM of compound 10. The capillary system is lined with TNF-primed HUVEC and cell adhesion, rolling and transmigration is monitored by time-lapse video microscopy. Data are expressed as cells adhered to HUVEC per mm^2, per 10^6 cells (left panel) or % of cells rolling or migrated (right panel). LGR 1406 (N-5-(2-aminocyclohexyl)-N-7-benzyl-3-isopropyl-1(2)H-pyrazolo[4,3-d]pyrimidine-5,7-diamine, Sroka et al. Mol Pharmacol. 2010; 77(2):255-61) was used as a negative control. Data are mean±SD of 3 separate experiments.
LGR 1406 as a negative control.
The ability of neutrophils to adhere to vascular endothelium and migrate from the blood into tissue, is the first step in the inflammatory process. Interference with this process would also result in suppression of inflammation. Neutrophils were flowed over TNF primed endothelial cells (HUVEC) lining a capillary based migration system, at flows rates and pressures mimicking the in vivo vasculature (see for detailed description of apparatus). Cells were recorded using time-lapse video microscopy and the numbers of rolling, adhered and transmigrated cells were enumerated over a 20 minute period. In test incubations the neutrophils and HUVEC were pre-treated with compound 10 at 50 and 100 μM and the compound was also present in the medium in which neutrophils were suspended.

Where [5] appears, read: compound at 50 and 100 μM, 20 minute period.

Bounds are passed on as bounds.

The IC50 is the concentration that gives 50% inhibition. The low end stands for greater potency, the high end for weaker potency. One may read the GI50 as the concentration that inhibits growth by half.

Consider `COc1cccc(CNc2nc(Cl)nc3c2ncn3C2OC(CO)C(O)C2O)c1O` (stereo not drawn) [Compound 10, 2-Chloro-6-(2-hydroxy-3-methoxybenzylamino)purine riboside], for which, in the experiment with neutrophils [1], the IC50 turned out to be 4 µM. Besides, in experiment [2], the GI50 was greater than 100 µM. The GI50 in experiment [3] was greater than 100 µM. Moreover, in the experiment with neutrophils [4] (FIG. 7, LGR 1406 as negative control), the neutrophil rolling velocity result is listed as “positive effects”. In addition, in the experiment with neutrophils [4] (setting [5]), the “number of cells that adhered and transmigrated through the endothelial layer” value is “reduced the number of cells that adhered and transmigrated”; the “number of cells that rolled over the endothelium” value was “increased the ones that rolled over the endothelium”.
